Like-named read-outs stand apart in the source and are kept apart here.
Assays:
[1] = system: A375 (BRAF V600E) cell line; test: A375 P-ERK inhibition assay (AlphaScreen); format: cell-based, human; conditions: Homo sapiens, A-375; A375_P-ERK
Description: (§1) Phospho-ERK AlphaScreen® assay. To determine the effects of compound treatment upon phosphorylation of ERK1/2, cells were plated in a 96-well dish and treated with an 8-point titration of compound for one hour at 37° C. before lysis. To detect pERK, cell lysates were incubated with streptavidin-coated AlphaScreen® donor beads, anti-mouse IgG AlphaScreen® acceptor beads, a biotinylated anti-ERK1/2 rabbit antibody, and a mouse antibody that recognizes ERK1/2 only when it is phosphorylated on Thr202 and Tyr204. The biotinylated ERK1/2 antibody binds to both the streptavidin-coated AlphaScreen® donor beads and to ERK1/2 (regardless of its phosphorylation state), and the phospho-ERK1/2 antibody binds to the acceptor beads and to ERK1/2 that is phosphorylated at Thr202/Tyr204. An increase in ERK1/2 phosphorylation at Thr202/Tyr204 brings the donor and acceptor AlphaScreen® beads into close proximity, generating a signal that can be quantified on an EnVision reader (Perkin Elmer).

[2] = system: IPC-298 (NRAS Q61L) cell line; test: IPC-298 P-ERK cell activation assay (AlphaScreen); format: cell-based, human; conditions: Homo sapiens; P-ERK cell activation, IPC-298; numeric bounds; read-out: Cell activity (EC50 μM) IPC-298_P-ERK
Description: (§2) B9 is a squamous cell carcinoma cell line expressing activated HRAS that was isolated from a DMBA/TPA-induced mouse model of skin carcinogenesis (Stoler, et al. The Journal of Cell Biology, 1993, 122(5), 1103-17). IPC-298 is a human melanoma cell line that expresses activated NRAS (Aubert, et al. International Journal of Cancer, 1993, 54(5), 784-92). To determine whether compounds induce phosphorylated ERK and MEK, cells are plated in a 96-well dish and treated with an 8-point titration of compound for one hour at 37° C. The media is then removed and the cells are incubated with lysis buffer containing protease and phosphatase inhibitors. Phosphorylated ERK and MEK in the resulting lysates is detected using AlphaScreen™ technology. To detect phosphorylated ERK, cell lysates are incubated with streptavidin-coated donor beads, anti-mouse IgG acceptor beads, a biotinylated anti-ERK1/2 rabbit antibody, and a mouse antibody that recognizes ERK1/2 only when it is phosphorylated on Thr202 and Tyr204. The biotinylated ERK1/2 antibody will bind to both the streptavidin-coated donor beads and to ERK1/2 (regardless of its phosphorylation state), and the phospho-ERK1/2 antibody will bind to the acceptor beads and to ERK1/2 that is phosphorylated at Thr202/Tyr204. Excitation of the beads with laser light at 680 nm produces singlet oxygen, which is rapidly quenched unless the beads are in close proximity. When ERK is phosphorylated, both antibodies can bind the same protein, bringing the donor and acceptor beads into close proximity, producing a signal that can be measured at 580 nm. MEK phosphorylation is detected using a similar approach, only with antibodies directed against total MEK1/2 and MEK1/2 that is phosphorylated at Ser217 and Ser221.
as §1

B9 (HRAS Q61L) cell line = test: B9 P-ERK cell activation assay (AlphaScreen); format: cell-based, mouse; conditions: Mus musculus, P-ERK cell activation, B9, read-out: Cell activity (EC50 μM) B9_pERK
Description: as §2, §1

BRAF V600E = target: T1, BRAF V600E (Homo sapiens, UniProt P15056, V600E); test: BRAF V600E biochemical kinase activity assay (AlphaScreen, biotin-MEK1 substrate); conditions: BRAF V600E biochemical inhibitory activity
T1 construct: purchased Upstate Biotechnology
Description: Compounds to be tested are diluted in dimethyl sulfoxide to a concentration of 0.1 mM. These are serially diluted 15 μL into 30 μL of dimethyl sulfoxide seven times in 96 well plates for a total of 8 dilution points, and for each dilution point 1 μL is added to a well of an assay plate. […] The reaction is started with addition of 10 μL of 200 μM ATP (i.e. final 100 μM ATP). After incubation of the kinase reaction for 45 minutes at room temperature, 5 μL/well of Stop Solution is added (25 mM Hepes pH 7.5, 100 mM EDTA, 0.01% BSA with donor beads (Streptavidin coated beads, Perkin Elmer), acceptor beads (Protein A coated, Perkin Elmer), and anti-phosphor MEK1/2 antibody (CellSignal), each at final concentration 10 μg/mL). The plates are incubated for 3 hours at room temperature and read on Envision reader (Perkin Elmer). Phosphorylation of Mek1 results in binding of the anti-phosphor-MEK1/2antibody and association of the donor and acceptor beads such that signal correlates with kinase activity. The signal versus compound concentration is used to determine the IC50.
The in vitro RAF kinase activities were determined by measuring phosphorylation of a biotinylated substrate peptide as described previously (Tsai, J. et al. Proc Natl Acad Sci USA 105, 3041-3046 (2008)). Compounds of formula (I), e.g., compound A, was also tested against a panel of 287 kinases at concentrations of 1 μM in duplicate. Kinases inhibited by over 50% were followed up by IC50 determination. The 287 kinases represent all major branches of the kinome phylogenetic tree. The inhibition screen of 287 kinases was carried out under contract as complementary panels at Invitrogen (Life Technologies, Wis., USA) SelectScreen™ profiling service, DiscoverX (CA, USA) KINOMEScan™ service, and Reaction Biology Corporation (PA, USA) Kinase HotSpot℠ service.

T1 sequence (P15056 whole entry V600E): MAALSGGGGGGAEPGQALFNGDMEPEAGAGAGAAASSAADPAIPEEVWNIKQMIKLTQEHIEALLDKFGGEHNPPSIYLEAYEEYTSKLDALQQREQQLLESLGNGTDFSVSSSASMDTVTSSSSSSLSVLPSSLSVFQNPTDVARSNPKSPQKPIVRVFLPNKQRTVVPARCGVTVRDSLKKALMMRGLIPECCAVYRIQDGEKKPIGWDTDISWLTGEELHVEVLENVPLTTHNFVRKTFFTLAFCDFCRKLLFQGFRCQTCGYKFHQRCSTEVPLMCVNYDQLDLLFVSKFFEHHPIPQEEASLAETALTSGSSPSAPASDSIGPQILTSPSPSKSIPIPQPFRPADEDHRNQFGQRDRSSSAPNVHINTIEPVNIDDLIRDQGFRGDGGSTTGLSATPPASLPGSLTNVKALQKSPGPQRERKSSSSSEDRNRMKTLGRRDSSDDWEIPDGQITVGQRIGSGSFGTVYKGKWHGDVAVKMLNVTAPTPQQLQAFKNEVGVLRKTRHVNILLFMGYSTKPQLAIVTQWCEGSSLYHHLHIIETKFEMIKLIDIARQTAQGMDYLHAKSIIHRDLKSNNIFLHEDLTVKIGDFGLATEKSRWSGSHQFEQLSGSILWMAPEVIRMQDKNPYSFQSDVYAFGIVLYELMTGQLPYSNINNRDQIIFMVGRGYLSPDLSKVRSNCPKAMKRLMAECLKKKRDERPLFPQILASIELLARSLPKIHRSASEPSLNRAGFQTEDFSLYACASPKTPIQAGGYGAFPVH

| IC50 [1] [µM] | EC50 [2] [µM] | EC50 (B9 (HRAS Q61L) cell line; numeric bounds) [µM] | IC50 (BRAF V600E) [µM] | EC50 (B9 (HRAS Q61L) cell line; class symbols) [µM] | SMILES |
| --- | --- | --- | --- | --- | --- |
| 0.0001 to 1 | > 10 | > 10 | 0.0001 to 1 |  | CN(C)S(=O)(=O)Nc1ccc(F)c(C(=O)c2c[nH]c3nccc(Cl)c23)c1F [Compound P-2007, 4-chloro-3-[3-(dimethylsulfamoylamino)-2,6-difluoro-benzoyl]-1H-pyrrolo[2,3-b]pyridine] |
| 0.0001 to 1 | > 10 |  | 0.0001 to 1 | 0.0001 to 1 | COC(=O)N[C@@H](C)CNc1nccc(-c2nn(C(C)C)cc2-c2cc(Cl)cc(NS(=O)(=O)N3CC[C@@H](F)C3)c2F)n1 [P-2161, methyl N-[(1S)-2-[[4-[4-[5-chloro-2-fluoro-3-[[(3R)-3-fluoropyrrolidin-1-yl]sulfonylamino]phenyl]-1-isopropyl-pyrazol-3-yl]pyrimidin-2-yl]amino]-1-methyl-ethyl]carbamate] |
| 0.0001 to 1 | > 10 | > 10 | 0.0001 to 1 |  | CCN(C)S(=O)(=O)Nc1cccc(C(=O)c2c[nH]c3ncnc(NCC4CC4)c23)c1F [P-2064, 4-(cyclopropylmethylamino)-5-[3-[[ethyl(methyl)sulfamoyl]amino]-2-fluoro-benzoyl]-7H-pyrrolo[2,3-d]pyrimidine] |
| 0.0001 to 1 | > 10 | > 10 | 0.0001 to 1 |  | CCN(C)S(=O)(=O)Nc1ccc(F)c(C(=O)c2c[nH]c3ncnc(NC4CCOCC4)c23)c1F [P-2119, 5-[3-[[ethyl(methyl)sulfamoyl]amino]-2,6-difluoro-benzoyl]-4-(tetrahydropyran-4-ylamino)-7H-pyrrolo[2,3-d]pyrimidine] |
| 0.0001 to 1 | > 10 | > 10 | 0.0001 to 1 |  | Cc1cc2c(-c3sc(C(C)(C)C)nc3-c3cccc(NS(=O)(=O)N4CCCC4)c3F)ncnc2[nH]1 [P-2123, N-[3-[2-tert-butyl-5-(6-methyl-7H-pyrrolo[2,3-d]pyrimidin-4-yl)thiazol-4-yl]-2-fluoro-phenyl]pyrrolidine-1-sulfonamide] |
| 0.0001 to 1 | > 10 | > 10 | 0.0001 to 1 |  | CCN(C)S(=O)(=O)Nc1cccc(-c2nc(C(C)(C)C)sc2-c2ccnc(OC)n2)c1F [P-2088, 2-tert-butyl-4-[3-[[ethyl(methyl)sulfamoyl]amino]-2-fluoro-phenyl]-5-(2-methoxypyrimidin-4-yl)thiazole] |

The remaining lines, values behind:

| SMILES | IC50 [1] [µM] | EC50 [2] [µM] | EC50 (B9 (HRAS Q61L) cell line; numeric bounds) [µM] | IC50 (BRAF V600E) [µM] | EC50 (B9 (HRAS Q61L) cell line; class symbols) [µM] |
| --- | --- | --- | --- | --- | --- |
| CC(=O)Nc1ccc(NC(=O)c2c(F)ccc(NS(=O)(=O)N3CCCC3)c2F)cn1 [P-2036, N-(6-acetamido-3-pyridyl)-2,6-difluoro-3-(pyrrolidin-1-ylsulfonylamino)benzamide] | 1 to 10 | > 10 | > 10 | 1 to 10 |  |
| [2H]C1([2H])CCC([2H])([2H])N1S(=O)(=O)Nc1cc(Cl)cc(C(=O)c2c[nH]c3ncc(-c4cnc(C5CC5)nc4)cc23)c1F [P-2176, N-[5-chloro-3-[5-(2-cyclopropylpyrimidin-5-yl)-1H-pyrrolo[2,3-b]pyridine-3-carbonyl]-2-fluoro-phenyl]-2,2,5,5-tetradeuterio-pyrrolidine-1-sulfonamide] | 0.0001 to 1 | > 10 | > 10 | 0.0001 to 1 |  |
| CC(C)S(=O)(=O)Nc1ccc(F)c(C(=O)c2c[nH]c3nccc(C#N)c23)c1F [P-2017, N-[3-(4-cyano-1H-pyrrolo[2,3-b]pyridine-3-carbonyl)-2,4-difluoro-phenyl]propane-2-sulfonamide] | 0.0001 to 1 | > 10 | > 10 | 0.0001 to 1 |  |
| O=C(c1c(F)ccc(NS(=O)(=O)C2CCOCC2)c1F)c1c[nH]c2ncnc(NCC3CC3)c12 [P-2058, N-[3-[4-(cyclopropylmethylamino)-7H-pyrrolo[2,3-d]pyrimidine-5-carbonyl]-2,4-difluoro-phenyl]tetrahydropyran-4-sulfonamide] | 0.0001 to 1 | > 10 | > 10 | 0.0001 to 1 |  |
| O=C(c1c(F)ccc(NS(=O)(=O)C2CCCCC2)c1F)c1c[nH]c2ncncc12 [P-2027, N-[2,4-difluoro-3-(7H-pyrrolo[2,3-d]pyrimidine-5-carbonyl)phenyl]cyclohexanesulfonamide] | 0.0001 to 1 | > 10 | > 10 | 0.0001 to 1 |  |
| CC(C)Nc1ncnc2[nH]cc(C(=O)c3c(F)ccc(NS(=O)(=O)C4CCCCC4)c3F)c12 [P-2039, N-[2,4-difluoro-3-[4-(isopropylamino)-7H-pyrrolo[2,3-d]pyrimidine-5-carbonyl]phenyl]cyclohexanesulfonamide] | 0.0001 to 1 | > 10 | > 10 | 0.0001 to 1 |  |
| CCC(C)S(=O)(=O)Nc1ccc(F)c(C(=O)c2c[nH]c3nccc(Cl)c23)c1F (centres unmarked) [P-2016, N-[3-(4-chloro-1H-pyrrolo[2,3-b]pyridine-3-carbonyl)-2,4-difluoro-phenyl]butane-2-sulfonamide] | 0.0001 to 1 | > 10 | > 10 | 0.0001 to 1 |  |
| C[C@@H](Nc1ncnc2[nH]cc(C(=O)c3cccc(NS(=O)(=O)N4CCCC4)c3F)c12)C1CC1 [P-2094, N-[3-[4-[[(1R)-1-cyclopropylethyl]amino]-7H-pyrrolo[2,3-d]pyrimidine-5-carbonyl]-2-fluoro-phenyl]pyrrolidine-1-sulfonamide] | 0.0001 to 1 | > 10 | > 10 | 0.0001 to 1 |  |
| O=C(c1c(F)ccc(NS(=O)(=O)C2CCCC2)c1F)c1c[nH]c2nccc(Cl)c12 [P-2015, N-[3-(4-chloro-1H-pyrrolo[2,3-b]pyridine-3-carbonyl)-2,4-difluoro-phenyl]cyclopentanesulfonamide] | > 10 | > 10 | > 10 | 0.0001 to 1 |  |
| O=C(c1c(F)ccc(NS(=O)(=O)N2CCCC2)c1F)c1c[nH]c2nccc(Cl)c12 [P-2025, N-[3-(4-chloro-1H-pyrrolo[2,3-b]pyridine-3-carbonyl)-2,4-difluoro-phenyl]pyrrolidine-1-sulfonamide] | 0.0001 to 1 | > 10 | > 10 | 0.0001 to 1 |  |
| O=C(c1cccc(NS(=O)(=O)N2CCCC2)c1F)c1c[nH]c2ncnc(NCC3CC(O)C3)c12 (centres unmarked) [P-2098, N-[2-fluoro-3-[4-[(3-hydroxycyclobutyl)methylamino]-7H-pyrrolo[2,3-d]pyrimidine-5-carbonyl]phenyl]pyrrolidine-1-sulfonamide] | 0.0001 to 1 | > 10 | > 10 | 0.0001 to 1 |  |

— US10421761B2, “Compounds for kinase modulation, and indications therefor” (Plexxikon Inc., priority 2013, dated 2019)
